From patent US11420960B2, “Use of 5-oxazolidine-2,4-dione C-glycoside derivatives as moisturizer for the skin” (L'OREAL, priority 2018, dated 2022) come the findings set out here.

In this test the test system is isolated stratum corneum (SC). As to the kind of experiment: Evaluation of the moisturizing potential on isolated stratum corneum by measurement with a Corneometer. To be noted: for Mean DHCMiactive agent corr: 5% by weight in water/n-propanol (80/20), 5 μl/cm2 on SC, T4h vs T0h, 75% relative humidity, 25° C., relative percentage with carrier control 0% and glycerol 100%; for dielectric capacitance of the stratum corneum (SC): compounds at 5% by weight. As to the method: B): Evaluation of the Moisturizing Potential on Isolated Stratum Corneum by Measurement with a Corneometer
A test was performed to evaluate the moisturizing potential of the compounds of the invention formulated in an aqueous solution to an amount of 5% by weight relative to the total weight of the composition.
The technique makes it possible to measure the dielectric capacitance of the stratum corneum (SC), which depends on the mean dielectric permittivity value of the tissue. The dielectric permittivity varies greatly with the amount of water contained in the SC.
The SC samples are conditioned at 75% relative humidity and at 25° C. before/during the measurements and the treatment. The capacitance measurement is performed using a Corneometer™ (Courage & Khazaka, Germany).
The compound tested, compounds 1, 2 and 3 according to the invention or a moisturizing active agent such as glycerol (humectant positive control), is dissolved in a water/n-propanol mixture (80/20) and the solution is deposited onto the SC at a rate of 5 μl/cm^2 followed by air-drying for a total duration of 4 h.
A measurement is taken at T0h, before the treatment, and a measurement T4h is taken after total drying of the treatment.
The variation in the level of moisturization between T0h and T4h is calculated for each condition tested and compared to the references (carrier control and positive control) and to its T0h. The experiments are carried out on at least two different batches of SC and three samples of SC per condition tested.
The variation in the corneometer signal (HCM) after treatment is calculated for each SC sample: DHCMi=HCMi(T4h)−HCMi(T0h).
The results are then expressed as relative percentage in relation to the references, the carrier control and the glycerol positive control corresponding to a level of 0% and 100%, respectively.
Thus, for each experiment, the following are measured: • For the carrier control: DHCMicarrier=HCMicarrier(T4h)−HCMicarrier(T0h) • For the positive control: DHCMiglycerol=HCMiglycerol(T4h)−HCMiglycerol(T0h) • For the active agent: DHCMiactive agent=HCMiactive agent(T4h)−HCMiactive agent(T0h) • % DHCMiactive agent=(DHCMiactive agent−DHCMicarrier)/((DHCMiglycerol−DHCMicarrier) • As specified above, according to this mode of calculation: • % DHCMicarrier=0% • % DHCMiglycerol=100%
The moisturizing potential of an active agent is therefore determined as relative percentage in relation to the positive control.

As to `O=C1N=C(O)C(C2OC[C@@H](O)[C@H](O)[C@H]2O)O1` (some centres unmarked) [Compound 2], the “Mean DHCMiactive agent corr” value turned out to be 63%. Moreover, the “dielectric capacitance of the stratum corneum (SC)” value (in words) is on record as “high”.

As for `CN1C(=O)OC(C2O[C@H](CO)[C@@H](O)[C@H](O)[C@H]2O)C1=O` (some centres unmarked) [Compound 3], the “Mean DHCMiactive agent corr” value is given as 51%. Besides, under “in words”, the “dielectric capacitance of the stratum corneum (SC)” value was “high”.

Turning to `O=C1N=C(O)C(C2O[C@H](CO)[C@@H](O)[C@H](O)[C@H]2O)O1` (some centres unmarked) [Compound 1], the “Mean DHCMiactive agent corr” value is 88%. Besides, the “dielectric capacitance of the stratum corneum (SC) in comparison with glycerol at the same concentration” value (in words, 5% by weight) is “of the same order”. For the same compound, the “dielectric capacitance of the stratum corneum (SC)” value (in words) is “high”.

Consider `OCC(O)CO` [Glycerol, glycerol, reference compound], for which the “Mean DHCMiactive agent corr” value is listed as 100%.
